ChEMBL document CHEMBL1201862, “PubChem BioAssay data set” (2004)
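Step 1: Grow cells in 96-well plates. Step 2: Expose to compound for 48 hours at 5 concentrations. Step 3: Interpolate endpoints linearly; if unreached, use highest concentration. GI50 is the concentration that inhibits growth by half.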 The source made the active and inactive calls. Cut-off read from the data, not from the text of the source: active = GI50 up to about 1.1 µM and inactive = higher.

Key:
Assay in all cases: NCI-60 cell line screen, 48 h
[1] = tested on: 786-0
[2] = tested on: HT-29
[3] = tested on: MDA-MB-435
[4] = tested on: HCT-15
[5] = tested on: EKVX
[6] = tested on: RXF 393
[7] = tested on: SNB-19
[8] = tested on: BT-549
[9] = tested on: MCF7
[10] = tested on: UO-31
[11] = tested on: NCI/ADR-RES
[12] = tested on: SK-MEL-5
[13] = tested on: T47D
[14] = tested on: SK-MEL-2
[15] = tested on: OVCAR-5
[16] = tested on: K562
[17] = tested on: CCRF-CEM
[18] = tested on: SF-295
[19] = tested on: TK-10
[20] = tested on: SF-268
[21] = tested on: MDA-MB-231
[22] = tested on: NCI-H522
[23] = tested on: SK-OV-3
[24] = tested on: NCI-H226
[25] = tested on: SK-MEL-28
[26] = tested on: KM12
[27] = tested on: UACC-257
[28] = tested on: Hs-578T
[29] = tested on: PC-3
[30] = tested on: A549
[31] = tested on: OVCAR-3
[32] = tested on: M14
[33] = tested on: COLO 205
[34] = tested on: DU-145
[35] = tested on: OVCAR-8
[36] = tested on: HCC 2998
[37] = tested on: NCI-H23
[38] = tested on: MDA-N
[39] = tested on: CAKI-1
[40] = tested on: SNB-75
[41] = tested on: MOLT-4
[42] = tested on: HOP-62
[43] = tested on: HCT-116
[44] = tested on: U-251
[45] = tested on: ACHN
[46] = tested on: IGROV-1
[47] = tested on: HOP-92
[48] = tested on: A498
[49] = tested on: RPMI-8226
[50] = tested on: OVCAR-4
[51] = tested on: SF-539
[52] = tested on: SW-620
[53] = tested on: NCI-H460
[54] = tested on: SN12C
[55] = tested on: Malme-3M

CNc1nc2c(C)ccc3nc(N(C)C)nc-3c2n1C
GI50 [1]: > 10 µM (inactive)
GI50 [2]: > 10 µM (inactive)
GI50 [3]: > 10 µM (inactive)
GI50 [4]: > 10 µM
GI50 [5]: > 10 µM (inactive)
GI50 [6]: > 10 µM (inactive)
GI50 [7]: > 10 µM (inactive)
GI50 [8]: > 10 µM (inactive)
GI50 [9]: > 10 µM (inactive)
GI50 [10]: > 10 µM (inactive)
GI50 [11]: > 10 µM (inactive)
GI50 [12]: > 10 µM (inactive)
GI50 [13]: > 10 µM (inactive)
GI50 [14]: > 10 µM (inactive)
GI50 [15]: > 10 µM (inactive)
GI50 [16]: > 10 µM (inactive)
GI50 [17]: > 10 µM (inactive)
GI50 [18]: > 10 µM (inactive)
GI50 [19]: > 10 µM (inactive)
GI50 [20]: > 10 µM (inactive)
GI50 [21]: > 10 µM (inactive)
GI50 [22]: > 10 µM (inactive)
GI50 [23]: > 10 µM (inactive)
GI50 [24]: > 10 µM (inactive)
GI50 [25]: > 10 µM (inactive)
GI50 [26]: > 10 µM (inactive)
GI50 [27]: > 10 µM (inactive)
GI50 [28]: > 10 µM (inactive)
GI50 [29]: > 10 µM (inactive)
GI50 [30]: > 10 µM (inactive)
GI50 [31]: > 10 µM (inactive)
GI50 [32]: > 10 µM (inactive)
GI50 [33]: > 10 µM (inactive)
GI50 [34]: > 10 µM (inactive)
GI50 [35]: > 10 µM (inactive)
GI50 [36]: > 10 µM (inactive)
GI50 [37]: > 10 µM (inactive)
GI50 [38]: > 10 µM (inactive)
GI50 [39]: > 10 µM (inactive)
GI50 [40]: > 10 µM (inactive)
GI50 [41]: > 10 µM (inactive)
GI50 [42]: > 10 µM (inactive)
GI50 [43]: > 10 µM (inactive)
GI50 [44]: > 10 µM (inactive)
GI50 [45]: > 10 µM (inactive)
GI50 [46]: > 10 µM (inactive)
GI50 [47]: > 10 µM (inactive)
GI50 [48]: > 10 µM (inactive)
GI50 [49]: > 10 µM (inactive)
GI50 [50]: > 10 µM (inactive)
GI50 [51]: > 10 µM (inactive)
GI50 [52]: > 10 µM (inactive)
GI50 [53]: > 10 µM (inactive)
GI50 [54]: 7.96 µM (inactive)
GI50 [55]: > 10 µM (inactive)
